Legend:
[1] = test system: ACHN; assay: Cytotoxicity against human ACHN cells assessed as cell viability at 10 uM after 72 hrs by sulforhodamine B assay relative to control; assay type: functional; settings: read-out: Activity
[2] = Cytotoxicity against human HCT15 cells assessed as cell viability at 10 uM after 72 hrs by sulforhodamine B assay relative to control; assay type: functional; settings: HCT-15, 72 h, read-out: Activity
[3] = test system: MDA-MB-231; assay: Cytotoxicity against human MDA-MB-231 cells assessed as cell viability at 10 uM after 72 hrs by sulforhodamine B assay relative to control; assay type: functional; settings: MDA-MB-231, 72 h, read-out: Activity
[4] = test system: NCI-H23; assay: Cytotoxicity against human NCI-H23 cells assessed as cell viability at 10 uM after 72 hrs by sulforhodamine B assay relative to control; assay type: functional; settings: NCI-H23, 72 h, read-out: Activity
[5] = Cytotoxicity against human NUGC3 cells assessed as cell viability at 10 uM after 72 hrs by sulforhodamine B assay relative to control; assay type: functional; settings: NUGC-3, 72 h, read-out: Activity
[6] = Cytotoxicity against human PC3 cells assessed as cell viability at 10 uM after 72 hrs by sulforhodamine B assay relative to control; assay type: functional; settings: PC-3, 72 h, read-out: Activity
[7] = biological target: Nuclear factor NF-kappa-B complex (Homo sapiens) (UniProt Q00653+P19838+Q04206); assay: Inhibition of NF-kappaB (unknown origin) transcriptional activity in LPS-induced mouse RAW264.7 cells at 30 uM after 1 hr by secreted alkaline phosphatase assay relative to control; assay type: cell-based
Chain of Nuclear factor NF-kappa-B complex (Homo sapiens) (P19838 whole entry, looked up): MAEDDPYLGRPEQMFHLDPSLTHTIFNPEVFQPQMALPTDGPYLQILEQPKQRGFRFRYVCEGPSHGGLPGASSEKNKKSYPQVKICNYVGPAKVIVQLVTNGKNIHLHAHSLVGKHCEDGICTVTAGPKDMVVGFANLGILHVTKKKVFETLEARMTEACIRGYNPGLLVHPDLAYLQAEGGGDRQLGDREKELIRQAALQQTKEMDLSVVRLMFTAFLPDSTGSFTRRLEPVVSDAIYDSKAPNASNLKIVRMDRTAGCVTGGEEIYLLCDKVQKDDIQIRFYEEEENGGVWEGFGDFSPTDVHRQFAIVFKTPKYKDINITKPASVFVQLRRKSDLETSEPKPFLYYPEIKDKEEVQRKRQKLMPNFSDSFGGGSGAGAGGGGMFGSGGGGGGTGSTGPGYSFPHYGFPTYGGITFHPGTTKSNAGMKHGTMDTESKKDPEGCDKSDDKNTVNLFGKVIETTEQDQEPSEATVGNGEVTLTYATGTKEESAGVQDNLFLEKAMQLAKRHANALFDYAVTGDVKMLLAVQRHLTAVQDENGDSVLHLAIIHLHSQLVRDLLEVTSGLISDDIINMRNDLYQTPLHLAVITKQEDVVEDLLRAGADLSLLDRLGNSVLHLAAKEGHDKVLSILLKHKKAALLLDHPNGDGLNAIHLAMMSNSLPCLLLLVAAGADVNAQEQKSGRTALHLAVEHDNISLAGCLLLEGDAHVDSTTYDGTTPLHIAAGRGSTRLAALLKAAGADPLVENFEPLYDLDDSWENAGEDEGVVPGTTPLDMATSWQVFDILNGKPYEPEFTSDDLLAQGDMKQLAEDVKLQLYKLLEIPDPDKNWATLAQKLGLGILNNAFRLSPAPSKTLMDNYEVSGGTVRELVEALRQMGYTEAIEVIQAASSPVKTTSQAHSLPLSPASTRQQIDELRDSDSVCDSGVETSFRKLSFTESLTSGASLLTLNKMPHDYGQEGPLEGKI
Chain of Nuclear factor NF-kappa-B complex (Homo sapiens) (Q00653 whole entry, looked up): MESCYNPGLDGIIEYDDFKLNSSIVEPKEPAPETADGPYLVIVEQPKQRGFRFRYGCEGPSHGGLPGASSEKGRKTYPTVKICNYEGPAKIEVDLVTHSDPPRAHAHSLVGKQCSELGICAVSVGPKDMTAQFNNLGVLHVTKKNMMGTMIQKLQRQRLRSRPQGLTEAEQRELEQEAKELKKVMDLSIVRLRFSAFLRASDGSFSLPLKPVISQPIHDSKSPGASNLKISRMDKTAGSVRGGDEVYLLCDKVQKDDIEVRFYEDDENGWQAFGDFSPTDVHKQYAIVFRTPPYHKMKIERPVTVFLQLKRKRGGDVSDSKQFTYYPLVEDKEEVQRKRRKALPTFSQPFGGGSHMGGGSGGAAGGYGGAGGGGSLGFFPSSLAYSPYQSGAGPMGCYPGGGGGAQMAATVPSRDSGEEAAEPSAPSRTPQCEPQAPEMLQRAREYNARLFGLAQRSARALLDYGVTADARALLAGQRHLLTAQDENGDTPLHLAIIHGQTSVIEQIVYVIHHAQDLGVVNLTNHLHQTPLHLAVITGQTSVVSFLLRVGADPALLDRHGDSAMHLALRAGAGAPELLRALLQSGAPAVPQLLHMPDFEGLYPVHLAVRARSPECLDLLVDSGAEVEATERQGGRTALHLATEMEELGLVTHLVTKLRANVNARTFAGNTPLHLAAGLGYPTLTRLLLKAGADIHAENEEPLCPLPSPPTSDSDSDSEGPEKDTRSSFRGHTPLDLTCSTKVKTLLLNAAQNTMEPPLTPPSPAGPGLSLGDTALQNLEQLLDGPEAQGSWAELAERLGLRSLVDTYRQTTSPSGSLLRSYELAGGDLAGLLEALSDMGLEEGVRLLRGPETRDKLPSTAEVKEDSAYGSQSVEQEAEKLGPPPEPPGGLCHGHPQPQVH
Chain of Nuclear factor NF-kappa-B complex (Homo sapiens) (Q04206 whole entry, looked up): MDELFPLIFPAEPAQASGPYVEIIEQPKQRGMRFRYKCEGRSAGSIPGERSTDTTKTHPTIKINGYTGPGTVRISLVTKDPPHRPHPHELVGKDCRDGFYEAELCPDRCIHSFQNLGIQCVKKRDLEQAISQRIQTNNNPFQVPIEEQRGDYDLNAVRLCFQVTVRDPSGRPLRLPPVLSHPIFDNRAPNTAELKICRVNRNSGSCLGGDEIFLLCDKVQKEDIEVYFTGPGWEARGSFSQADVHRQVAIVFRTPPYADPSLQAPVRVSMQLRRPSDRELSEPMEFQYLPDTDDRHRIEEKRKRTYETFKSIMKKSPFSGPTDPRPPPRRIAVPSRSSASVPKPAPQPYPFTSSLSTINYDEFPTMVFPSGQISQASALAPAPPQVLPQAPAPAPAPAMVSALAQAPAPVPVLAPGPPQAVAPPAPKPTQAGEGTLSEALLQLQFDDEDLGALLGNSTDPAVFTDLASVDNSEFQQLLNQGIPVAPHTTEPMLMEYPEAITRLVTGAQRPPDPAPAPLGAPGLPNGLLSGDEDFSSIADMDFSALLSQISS

Structure (SMILES) | viability at 10 µM [1] [%] | viability at 10 µM [2] [%] | viability at 10 µM [3] [%] | viability at 10 µM [4] [%] | viability at 10 µM [5] [%] | viability at 10 µM [6] [%] | inhibition [7] [%]
COc1ccc(NC(=O)c2cc3ccccc3o2)cc1 | 109 | 87 | 110 | 101 | 102 | 111 | 39.5
O=C(Nc1cc(C(F)(F)F)ccc1C(F)(F)F)C1Cc2ccccc2O1 (stereo unspecified) | 105 | 81 | 98 | 87 | 99 | 88 | 34
O=C(Nc1ccc(O)cc1)C1Cc2ccccc2O1 (stereo unspecified) | 122 | 88 | 91 | 106 | 102 | 98 | 18.5
O=C(Nc1ccc(Cl)cc1)c1cc2ccccc2o1 | 89 | 68 | 96 | 92 | 91 | 84 | 43
Cc1ccc(NC(=O)C2Cc3ccccc3O2)cc1 (stereo unspecified) | 134 | 100 | 96 | 105 | 112 | 80 | 34.5
O=C(Nc1ccc(C(F)(F)F)cc1)C1Cc2ccccc2O1 (stereo unspecified) | 124 | 96 | 82 | 97 | 99 | 60 | 41
O=C(Nc1ccccc1C(F)(F)F)c1cc2ccccc2o1 | 98 | 99 | 114 | 100 | 93 | 95 | 57.5
COc1ccc(OC)c(NC(=O)c2cc3ccccc3o2)c1 | 102 | 97 | 101 | 103 | 91 | 106 | 23
COc1cc(NC(=O)C2Cc3ccccc3O2)cc(OC)c1 (stereo unspecified) | 123 | 91 | 78 | 95 | 96 | 73 | 24
O=C(Nc1cc(C(F)(F)F)ccc1C(F)(F)F)c1cc2ccccc2o1 | 84 | 88 | 98 | 77 | 89 | 95 | 28.5
COc1cccc(NC(=O)C2Cc3ccccc3O2)c1 (stereo unspecified) | 135 | 99 | 80 | 102 | 106 | 89 | 16.5
O=C(Nc1ccc(Cl)cc1)C1Cc2ccccc2O1 (stereo unspecified) | 143 | 55 | 100 | 89 | 100 | 71 | 41.5
O=C(Nc1cccc(O)c1)c1cc2ccccc2o1 | 84 | 85 | 100 | 95 | 87 | 90 | 41
O=C(Nc1ccc([N+](=O)[O-])cc1)c1cc2ccccc2o1 | 94 | 84 | 111 | 101 | 95 | 87 | 34.5
COc1ccccc1NC(=O)C1Cc2ccccc2O1 (stereo unspecified) | 134 | 100 | 89 | 111 | 111 | 88 | 29
O=C(Nc1ccccc1)c1cc2ccccc2o1 | 89 | 75 | 94 | 98 | 97 | 83 | 44
COc1cccc(NC(=O)c2cc3ccccc3o2)c1 | 105 | 87 | 127 | 105 | 99 | 106 | 34.5
COc1ccc(NC(=O)C2Cc3ccccc3O2)cc1OC (stereo unspecified) | 127 | 92 | 71 | 101 | 87 | 38 | 21.5
Cc1cc(C)cc(NC(=O)c2cc3ccccc3o2)c1 | 101 | 79 | 94 | 99 | 93 | 94 | 70
Cc1ccccc1NC(=O)c1cc2ccccc2o1 | 106 | 93 | 101 | 89 | 98 | 100 | 46
COc1ccc(NC(=O)c2cc3ccccc3o2)cc1OC | 99 | 92 | 81 | 102 | 90 | 98 | 40
O=C(Nc1ccccc1C(F)(F)F)C1Cc2ccccc2O1 (stereo unspecified) | 136 | 98 | 98 | 102 | 103 | 74 | 44.5
O=C(Nc1cccc(Cl)c1)c1cc2ccccc2o1 | 69 | 52 | 80 | 61 | 83 | 95 | 37
O=C(Nc1cccc(C(F)(F)F)c1)c1cc2ccccc2o1 | 83 | 75 | 105 | 92 | 79 | 96 | 47.5
O=C(Nc1ccc(C(F)(F)F)cc1)c1cc2ccccc2o1 | 79 | 80 | 89 | 89 | 75 | 74 | 34.5
O=C(Nc1ccccc1[N+](=O)[O-])c1cc2ccccc2o1 | 91 | 73 | 102 | 95 | 95 | 92 | 25.5
Cc1ccc(C)c(NC(=O)C2Cc3ccccc3O2)c1 (stereo unspecified) | 129 | 88 | 88 | 103 | 81 | 55 | 22
O=C(Nc1ccccc1)C1Cc2ccccc2O1 (stereo unspecified) | 95 | 88 | 101 | 93 | 87 | 92 | 10
